Experimental data published in patent US20080014186A1, “Hla-A24 or Hla-A2 Binding Peptides of Parathyroid Hormone-Related Protein” (GREEN PEPTIDE CO., LTD., priority 2004, published 2008).
Ends that are not written are not given here.

Legend:
PC93-A2 cells = test: Cytotoxicity of peptide-stimulated PBMCs (HLA-A2); type: cell-based, human; details: PC93-A2 vs PC93 and PHA-stimulated T cell blasts; FIG. 4B, 5
Protocol: In a similar way to Example 2, it was examined whether or not PTHrP 42-51 and PTHrP 59-67 peptides could induce cancer-reactive CTLs in PBMCs derived from HLA-A2^+ healthy donors and prostate cancer patients. An HLA-A2-expressing PC93 prostate cancer cell line was prepared by constitutively expressing an HLA-A*0201 molecule on a PC93 cell which was a HLA-A2-prostate cancer cell line (established by Dr. K. Ohnishi, Department of Urology, Kyoto University) (PC93-A2 cell). The expression of the HLA-A*0201 molecule on the cell line was previously reported. In addition, the PC93 cells produced PTHrP at a level of 2.2 pmol/l (1×10^6 cell/ml for 24 hr).
Cytotoxicities of these peptide-stimulated PBMCs against PC93 cells, PC93-A2 cells, and PHA-stimulated T cell blasts are shown in FIG. 4B.

LNCaP-A24 cells = test: 6-hr 51Cr-release cytotoxicity assay of peptide-stimulated PBMCs (HLA-A24); type: cell-based, human; details: LNCaP-A24 vs LNCaP and HLA-A24^+ PHA-blastoid T cells; FIG. 2A
Protocol: In order to investigate the HLA-A24-restricted and prostate cancer-reactive cytotoxicity of peptide-stimulated PBMCs, an HLA-A24-expressing LNCaP cell line, which was designated as LNCaP-A24, was prepared. The LNCaP is an HLA-A24 negative prostate cancer cell line. To establish LNCaP cells stably expressing HLA-A24 molecules (designated as LNCaP-A24), a pcDNA3.1/Hygro vector (Invitrogen, Calif.), which was inserted with the HLA-A*2402 gene, was electroporated into the LNCaP cell line (ATCC number: CRL-1740), and selection was carried out with hygromycin B (Invitrogen) at a dose of 170 μg/ml. All cell lines were maintained in RPMI-1640 medium (Gibco BRL, Grand Island, N.Y., USA) supplemented with 10% FCS. LNCaP has previously been reported to produce PTHrP (17). A parental LNCaP cell line was negative for the cell surface expression of HLA-A24 molecules, whereas the LNCaP-A24 cell line expressed HLA-A24 molecules on their cell surface. Flow cytometric analysis was performed on LNCaP and LNCaP-A24 cells. These cells were stained with anti-HLA-A24 mAb, followed by FITC-conjugated anti-mouse IgG mAb. The dotted lines represent staining without the first rnAb. […]

| Sequence | Induction of prostate cancer-reactive CTLs / cytotoxicity of peptide-stimulated PBMCs (PC93-A2 cells) | Induction of prostate cancer-reactive CTLs / cytotoxicity of peptide-stimulated PBMCs (LNCaP-A24 cells) |
| --- | --- | --- |
| FLHHLIAEI [PTHrP 59-67] | have the potential to induce prostate cancer-reactive CTLs | – |
| QLLHDKGKSI | have the potential to induce prostate cancer-reactive CTLs | – |
| RAVSEHQLL [PTHrP 36-44] | – | have the potential to induce prostate cancer-reactive CTLs |
| RYLTQETNKV [PTHrP 102-111] | – | have the potential to induce prostate cancer-reactive CTLs |
